Assay results from publication doi:10.1101/2022.02.10.479976v1 (bioRxiv, 2022).
“And” between values parts separate entries of the source, which are not always exact repeats. Equal values may be shown once.

Columns and labels:
[1] = cited from earlier work
[2] = Distribution of calcitonin in sub-compartments of sheep blood in vitro; assay type: in vitro ADME; details: calcitonin treated group, 2.5 ng/ml; sum of all five compartments = 100 percent
[3] = cited from earlier work; remark: listed apart in the source
[4] = cited from earlier work; remark: listed apart in the source

Row | distribution of calcitonin associated with RBC [2] | distribution of calcitonin in plasma [2] | distribution of calcitonin on WBC-surface [2] | Substance | sustained pharmacodynamic effects (duration) [1] | plasma protein binding [3] | half-life [4] | bioavailability ([4]; parenteral delivery, various formulations) | elimination half-life [4]
1 | less than 8% | ~30% | ~30% and ~40% | Calcitonin | 18 to 22 h | ~40% | 40 to 60 min | up to 70% | 
2 |  |  |  | salmon Calcitonin |  |  |  |  | 54 to 76 min
